# Results reported in patent publication US10605810B2, “Pincers comprising antibody and aptamer conjugated via a linker which binds to the same target material and use thereof” (University-Industry Cooperation Group Of Kyung Hee …, priority 2013, dated 2020).
# {NH2C6} = aminohexyl linker, H2N-(CH2)6-
# B1: anti-HER2 aptamer: anti-human epidermal growth factor 2 (HER2) aptamer, SEQ ID NO: 3, purchased from Bioneers (nucleic acid)
# DNA: AACCGCCCAAATCCCTAAGAGTCTGCACTTGTCATTTTGTATATGTATTTGGTTTTTGGCTCTCACAGACACACTACACACGCACA
# modifications: DNA, 5' {NH2C6}, backbone not given here; further chemistry not fully specified
# Legend:
# SK-BR-3 cells = assay: Cell viability by MTT reduction assay, SK-BR-3
# Method: In order to maintain the cells in the log phase, a fresh medium was resupplied two or three times a week.
# The cell viability was measured using the standard 3-(4,5-dimethylthiazol-2-yl)-2,5-diphenyltetrazolium bromide (MTT) reduction assay. Simply, cells that grow exponentially were inoculated at a density of 5×10^3 per well in a 96-well with flat bottom plate (200 μL/well) and cultured at 37° C. for 24 hours.
# 10 μL of MTT solution was added to each well, and the cells were further cultured at 37° C. for 4 hours. The amount of formazan product was measured at 570 nm. The cell survival fraction was calculated as a percentage of the untreated control group.
# thrombin = biological target: T1, thrombin (Homo sapiens, UniProt P00734); settings: read-out: Kd^app values reported in the art; cited from earlier work
# T1 construct: 200 μL (2 nmol) of the thrombin solution prepared at a concentration of 10 pmol/pt was prepared; purchased Research Laboratories
# HER2 epitope peptide = settings: read-out: Kd for HER2 epitope peptide (reported); cited from earlier work
# [1] = biological target: extracellular domain of a HER2 protein (Homo sapiens, UniProt P04626); settings: cited from earlier work
molecule,measurement,setting,value
"COc1cccc2c1C(=O)c1c(O)c3c(c(O)c1C2=O)C[C@@](O)(C(=O)CO)C[C@@H]3O[C@H]1C[C@H](N)[C@H](O)[C@H](C)O1 [Dox, doxorubicin]",IC50,"SK-BR-3 cells; Homo sapiens, SK-BR-3, 24 h, read-out: IC50 for SK-BR-3",43.9 nM
"29-mer DNA aptamer: 5′-H2N—(CH2)6-AGTCCGTGGTAGGGCAGGTTGGGGTGACT-3′, specifically binds to thrombin",Kd,thrombin,3.5 nM
"15-mer DNA aptamer: 5′-H2N—(CH2)6-GGT TGG TGT GGT TGG-3′, specifically binds to thrombin",Kd,thrombin,20.2 nM
B1,Kd,HER2 epitope peptide,18.9 nM
same,Kd,[1],315 nM
same,cytotoxicity against SK-BR-3 cells,"SK-BR-3 cells; 0 nM to 100 nM, FIG. 10",does not have cytotoxicity
